Reference: the NIST ThermoML archive (doi:10.1021/je0500734)
Numbers after ± are expanded uncertainties.

Assays:
[1] = xn = mol fraction of the nth substance listed; conditions: 101.33 kPa, Liquid; for speed of sound: acoustic time of flight gauge
[2] = 101.33 kPa, Liquid; for speed of sound: acoustic time of flight gauge

`[2H]OCCCCC` [pentan-1-ol-d] + C[N+](=O)[O-] showed a mass density ([1]; 301.3 K, x2 = 0) of 815.63 ± 2.1 kg/m3, a viscosity ([1]; 301.3 K, x2 = 0) of 3.118 ± 0.18 mPa·s and a mass density ([1]; 301.3 K, x2 = 0.07) of 825.73 ± 2 kg/m3. The viscosity ([1]; 301.3 K, x2 = 0.106) was 2.465 ± 0.14 mPa·s, the mass density ([1]; 301.3 K, x2 = 0.154) was 839.37 ± 1.9 kg/m3 and the mass density ([1]; 301.3 K, x2 = 0.231) was 852.09 ± 1.8 kg/m3. It also gave a viscosity ([1]; 301.3 K, x2 = 0.245) of 1.937 ± 0.12 mPa·s, a mass density ([1]; 301.3 K, x2 = 0.298) of 862.5 ± 1.8 kg/m3 and a mass density ([1]; 301.3 K, x2 = 0.385) of 879.49 ± 1.6 kg/m3. The viscosity ([1]; 301.3 K, x2 = 0.386) was 1.497 ± 0.091 mPa·s, the mass density ([1]; 301.3 K, x2 = 0.503) was 906.93 ± 1.4 kg/m3 and the viscosity ([1]; 301.3 K, x2 = 0.508) was 1.161 ± 0.073 mPa·s. It also gave a mass density ([1]; 301.3 K, x2 = 0.551) of 920.64 ± 1.3 kg/m3, a viscosity ([1]; 301.3 K, x2 = 0.555) of 1.097 ± 0.069 mPa·s and a viscosity ([1]; 301.3 K, x2 = 0.623) of 1.004 ± 0.064 mPa·s. The mass density ([1]; 301.3 K, x2 = 0.651) was 954.06 ± 1 kg/m3, the viscosity ([1]; 301.3 K, x2 = 0.679) was 0.9207 ± 0.06 mPa·s and the viscosity ([1]; 301.3 K, x2 = 0.718) was 0.8419 ± 0.055 mPa·s. It also gave a mass density ([1]; 301.3 K, x2 = 0.74) of 989.43 ± 0.74 kg/m3, a viscosity ([1]; 301.3 K, x2 = 0.749) of 0.7878 ± 0.052 mPa·s and a viscosity ([1]; 301.3 K, x2 = 0.774) of 0.7451 ± 0.05 mPa·s. It also gave a mass density ([1]; 301.3 K, x2 = 0.847) of 1037.27 ± 0.95 kg/m3, a mass density ([1]; 301.3 K, x2 = 0.946) of 1090.5 ± 1.4 kg/m3 and a mass density ([1]; 306.3 K, x2 = 0) of 811.88 ± 2.2 kg/m3. For the same compound, the viscosity ([1]; 306.3 K, x2 = 0) was 2.685 ± 0.16 mPa·s, the mass density ([1]; 306.3 K, x2 = 0.07) was 821.85 ± 2.1 kg/m3 and the viscosity ([1]; 306.3 K, x2 = 0.106) was 2.186 ± 0.13 mPa·s. The mass density ([1]; 306.3 K, x2 = 0.154) was 835.21 ± 2 kg/m3, the mass density ([1]; 306.3 K, x2 = 0.231) was 847.81 ± 1.9 kg/m3 and the viscosity ([1]; 306.3 K, x2 = 0.245) was 1.678 ± 0.1 mPa·s. The mass density ([1]; 306.3 K, x2 = 0.298) was 858.1 ± 1.8 kg/m3, the mass density ([1]; 306.3 K, x2 = 0.385) was 873.8 ± 1.7 kg/m3 and the viscosity ([1]; 306.3 K, x2 = 0.386) was 1.319 ± 0.082 mPa·s. It also gave a mass density ([1]; 306.3 K, x2 = 0.503) of 904.01 ± 1.4 kg/m3, a viscosity ([1]; 306.3 K, x2 = 0.508) of 1.066 ± 0.067 mPa·s and a mass density ([1]; 306.3 K, x2 = 0.551) of 917.49 ± 1.3 kg/m3. The viscosity ([1]; 306.3 K, x2 = 0.555) was 0.9975 ± 0.064 mPa·s, the viscosity ([1]; 306.3 K, x2 = 0.623) was 0.8782 ± 0.057 mPa·s and the mass density ([1]; 306.3 K, x2 = 0.651) was 950.15 ± 1.1 kg/m3. It also gave a viscosity ([1]; 306.3 K, x2 = 0.679) of 0.7937 ± 0.053 mPa·s, a viscosity ([1]; 306.3 K, x2 = 0.718) of 0.729 ± 0.049 mPa·s and a mass density ([1]; 306.3 K, x2 = 0.74) of 983.56 ± 0.78 kg/m3. For the same compound, the viscosity ([1]; 306.3 K, x2 = 0.749) was 0.6974 ± 0.047 mPa·s, the viscosity ([1]; 306.3 K, x2 = 0.774) was 0.6734 ± 0.046 mPa·s and the mass density ([1]; 306.3 K, x2 = 0.847) was 1031.12 ± 0.9 kg/m3. For the same compound, the mass density ([1]; 306.3 K, x2 = 0.946) was 1083.88 ± 1.3 kg/m3.
`CCCCCO` [pentan-1-ol] + C[N+](=O)[O-] showed a speed of sound ([1]; 301.15 K, x2 = 0) of 1263.3 ± 2 m/s, a mass density ([1]; 301.15 K, x2 = 0) of 808.96 ± 2.2 kg/m3 and a viscosity ([1]; 301.15 K, x2 = 0) of 3.113 ± 0.18 mPa·s. The speed of sound ([1]; 306.15 K, x2 = 0) was 1246.2 ± 2 m/s, the mass density ([1]; 306.15 K, x2 = 0) was 805.17 ± 2.2 kg/m3 and the viscosity ([1]; 306.15 K, x2 = 0) was 2.686 ± 0.16 mPa·s.
`[2H]C([2H])([2H])[N+](=O)[O-]` [deuteronitromethane] gave a kinematic viscosity ([2]; 293.15 K) of 6.05e-07 ± 1.6e-08 m2/s, a mass density ([2]; 293.15 K) of 1194.74 ± 1.7 kg/m3 and a speed of sound ([2]; 293.15 K) of 1291.1 ± 2 m/s. For the same compound, the kinematic viscosity ([2]; 295.15 K) was 5.81e-07 ± 1.6e-08 m2/s, the mass density ([2]; 295.15 K) was 1190.43 ± 1.7 kg/m3 and the speed of sound ([2]; 295.15 K) was 1283.2 ± 2 m/s. It also gave a kinematic viscosity ([2]; 298.15 K) of 5.7e-07 ± 1.5e-08 m2/s, a mass density ([2]; 298.15 K) of 1187.71 ± 1.7 kg/m3 and a speed of sound ([2]; 298.15 K) of 1271.3 ± 2 m/s. For the same compound, the kinematic viscosity ([2]; 300.15 K) was 5.49e-07 ± 1.5e-08 m2/s, the mass density ([2]; 300.15 K) was 1184.73 ± 1.7 kg/m3 and the speed of sound ([2]; 300.15 K) was 1263.3 ± 2 m/s. The kinematic viscosity ([2]; 303.15 K) was 5.26e-07 ± 1.5e-08 m2/s, the mass density ([2]; 303.15 K) was 1181.86 ± 1.7 kg/m3 and the speed of sound ([2]; 303.15 K) was 1251.4 ± 2 m/s. For the same compound, the kinematic viscosity ([2]; 303.5 K) was 6.27e-07 ± 4.3e-08 m2/s, the mass density ([2]; 303.5 K) was 1180.03 ± 2.1 kg/m3 and the viscosity ([2]; 303.5 K) was 0.6274 ± 0.043 mPa·s. The kinematic viscosity ([2]; 305.15 K) was 5.13e-07 ± 1.4e-08 m2/s, the mass density ([2]; 305.15 K) was 1178.3 ± 1.6 kg/m3 and the speed of sound ([2]; 305.15 K) was 1243.5 ± 2 m/s. The kinematic viscosity ([2]; 307.5 K) was 5.82e-07 ± 4e-08 m2/s, the mass density ([2]; 307.5 K) was 1172.08 ± 2 kg/m3 and the viscosity ([2]; 307.5 K) was 0.5819 ± 0.041 mPa·s. The kinematic viscosity ([2]; 308.15 K) was 4.92e-07 ± 1.4e-08 m2/s, the mass density ([2]; 308.15 K) was 1173.28 ± 1.6 kg/m3 and the speed of sound ([2]; 308.15 K) was 1231.6 ± 2 m/s.
